According to patent US20210087195A1, “NEW CRYSTAL FORM OF ACALBRUTINIB, PREPARATION METHOD THEREFOR AND USE THEREOF” (Crystal Pharmaceutical (Suzhou) Co., Ltd., priority 2018, published 2021):
Values after ≈ are worked out from the molar mass of the structure shown. “Also recorded” adds a separate entry of the source. Where two headings read alike, the source gives them in different places.

What was measured:
Type in all cases: physicochemical
[1] = Physical stability of crystalline form in water (suspension, magnetic stirring or shaking, XRPD); conditions: for Physical stability in water (crystalline form change): magnetic stirring and shaking at room temperature and 5° C., up to 7 days
Experimental: The following experiments were conducted to compare physical stability of Form K1 of the present disclosure and Form I of WO2017002095A1 in water. Approximately 10 mg of Form K1 and Form I solids were added into 1.0 mL of pure water separately to form suspensions. The suspensions were dispersed by magnetic stirring and shaking at room temperature and 5° C. to evaluate the physical stability of Form K1 and Form I of WO2017002095A1 in water.

[2] = Stability of drug substance at long-term and accelerated conditions (XRPD); conditions: for Solid form after storage: one month
Experimental: Four samples, 10 mg each of Form K1 of the present disclosure was stored in HPLC glass vials. The HPLC glass vials were capped in sealed conditions, or covered with Parafilm with 3-5 pinholes in open conditions. After one month, solid forms were checked by XRPD.

[3] = Solubility in buffers of pH 7.0, 7.4 and 8.7 (HPLC); conditions: for solubility at 2 h: phosphate buffer, thermodynamic from solid, read-out: Solubility after equilibration for 2 hours
Experimental: A sufficient amount of Form K1 or Form I of WO2017002095A1 was suspended in buffers of pH 7.0, 7.4 and 8.7. After being stirred and equilibrated for 2 hours, the suspension was centrifuged to obtain supernatant. Concentration (mg/mL) of the supernatant was analyzed by HPLC.

[4] = Solubility in organic solvents (incremental solvent addition)
Experimental: A certain amount of Form K1 or Form I of WO2017002095A1 was added into a glass vial. Organic solvent was added into the glass vial in increments of 100 μL. Solid was quickly dispersed in solvent through oscillation or sonication, and the process was monitored to see whether the solid was completely dissolved. No more solvent was added when solids were completely dissolved, or a total volume of solvent reached 1.5 mL. According to mass of sample (m) and volume of solvent added, solubility (S) of different crystalline forms in organic solvent was calculated.

[5] = Physical stability under manual grinding (XRPD); conditions: ground manually in a mortar for 5 minutes
Experimental: Form K1 was ground manually in a mortar for 5 minutes.

[6] = Compressibility (tensile strength of compressed powder); conditions: φ6 mm round tooling, compressed at 10 kN, T=2H/πDL
Experimental: Approximately 80 mg of Form K1 or Form I of WO2017002095A1 was added into the dies of φ6 mm round tooling, compressed at 10 kN manually, and then stored in a desiccator for 24 hours until complete elastic recovery. Radial crushing force (hardness, H) was tested with an intelligent tablet hardness tester. Diameter (D) and thickness (L) were tested with a caliper. Tensile strength of the powder with different hardness was calculated with the following formula: T=2H/πDL. Under a certain force, the greater the tensile strength, the better the compressibility.

[7] = Adhesiveness (amount sticking to the punch); conditions: φ8 mm round tooling, 10 kN, held 30 s, compression repeated twice
Experimental: Approximately 30 mg of Form K1 or Form I of WO2017002095A1 was weighed and then added into the dies of φ8 mm round tooling, compressed at 10 kN and held for 30 s. The amount of material sticking to the punch was weighed. The compression was repeated twice and the cumulative amount and average amount of solids sticking to the punch during the compression were recorded.

[8] = Form change during capsule formulation process (XRPD); conditions: before and after capsule preparation
Experimental: Form K1 capsules were prepared according to the formulation listed in Table 11 and the preparation process described in Table 12. XRPD was performed to test the form change before and after capsule preparation.

[9] = Slurry competition experiments between Form K1 and Form I in water; conditions: 5° C. and room temperature
Experimental: Approximately 30 mg of Form K1 and Form I of WO2017002095A1 were weighed and suspended into water at 5° C. and room temperature, to evaluate the stability of Form K1 and Form I of WO2017002095A1.

[10] = listed as Form I of WO2017002095A1

CC#CC(=O)N1CCC[C@H]1c1nc(-c2ccc(C(=O)Nc3ccccn3)cc2)c2c(N)nccn12 [Form K1, (S)-4-(8-amino-3-(1-(but-2-ynoyl)pyrrolidin-2-yl)imidazo[1,5-a]pyrazin-1-yl)-N-(pyridin-2-yl)benzamide]
Physical stability in water (crystalline form change) [1]: no crystalline form change; also recorded: doesn't change | Stability of drug substance (time kept stable) ([2]; 25° C./60% RH and 40° C./75% RH, sealed and open): stable for at least one month | Solid form after storage ([2]; 25° C./60% RH, open): Form K1 | Solid form after storage ([2]; 25° C./60% RH, sealed): Form K1 | Solid form after storage ([2]; 40° C./75% RH, open): Form K1 | Solid form after storage ([2]; 40° C./75% RH, sealed): Form K1 | solubility at 2 h ([3]; pH 7, aqueous buffer, pH = 7.0 phosphate aqueous solution): 79 µg/mL (≈ 170 µM) | solubility at 2 h ([3]; pH 7.4, aqueous buffer, pH = 7.4 phosphate aqueous solution): 69 µg/mL (≈ 148 µM) | solubility at 2 h ([3]; pH 8.7, aqueous buffer, pH = 8.7 phosphate aqueous solution): 66 µg/mL (≈ 142 µM) | Solubility ([4]; 1,4-Dioxane): S > 102.0 mg/mL | Solubility ([4]; 2-methyltetrahydrofuran, organic solvent or mixture, thermodynamic from solid, 2-methyltetrahydrofuran, read-out: Solubility): > 17600 µg/mL | Solubility ([4]; Acetone): S > 137.0 mg/mL | Solubility ([4]; Acetonitrile): S > 36.3 mg/mL | Solubility ([4]; Ethanol): S > 120.0 mg/mL | Solubility ([4]; Isopropanol): S > 48.0 mg/mL | Solubility ([4]; Methanol): S > 89.0 mg/mL | Solubility ([4]; Methyl ethyl ketone): S > 114.0 mg/mL | Solubility ([4]; Tetrahydrofuran): S > 142.0 mg/mL | Solubility ([4]; ethyl acetate, organic solvent or mixture, thermodynamic from solid, Ethyl acetate, read-out: Solubility): > 13200 µg/mL | Solubility ([4]; methyl isobutyl ketone, organic solvent or mixture, thermodynamic from solid, Methyl isobutyl ketone, read-out: Solubility): > 10000 µg/mL | Solubility ([4]; n-Butanol): S > 30.3 mg/mL | Solubility ([4]; n-Propanol): S > 58.0 mg/mL | Physical stability under grinding (form change) [5]: no obvious form change or crystallinity decrease | Tensile strength [6]: 1.31 MPa | Average amount sticking to the punch [7]: 30 µg | Cumulative amount sticking to the punch [7]: 60 µg | Form change during capsule formulation process [8]: doesn't change

CC#CC(=O)N1CCC[C@H]1c1nc(-c2ccc(C(=O)Nc3ccccn3)cc2)c2c(N)nccn12 [Form I, (S)-4-(8-amino-3-(1-(but-2-ynoyl)pyrrolidin-2-yl)imidazo[1,5-a]pyrazin-1-yl)-N-(pyridin-2-yl)benzamide, reference compound]
Physical stability in water (crystalline form change) [1]: crystallinity decrease and almost converts into amorphous | Solid form changes in the suspension ([1]; water, magnetic stirring, room temperature, 4 hours): crystallinity decrease and almost converts into amorphous | Form conversion in slurry competition [9]: convert into Form K1 | Solubility after equilibration for 2 hours ([3]; pH = 7.0 phosphate aqueous solution): 64 µg/mL | Solubility after equilibration for 2 hours ([3]; pH = 7.4 phosphate aqueous solution): 55 µg/mL | Solubility after equilibration for 2 hours ([3]; pH = 8.7 phosphate aqueous solution): 56 µg/mL | Solubility ([4]; 1,4-Dioxane): S < 13.1 mg/mL | Solubility ([4]; 2-methyltetrahydrofuran): S < 8.9 mg/mL | Solubility ([4]; Acetone): S < 6.5 mg/mL | Solubility ([4]; Acetonitrile): S < 7.8 mg/mL | Solubility ([4]; Ethanol): S < 6.4 mg/mL | Solubility ([4]; Ethyl acetate): S < 7.9 mg/mL | Solubility ([4]; Isopropanol): S < 6.5 mg/mL | Solubility ([4]; Methanol): S < 27.0 mg/mL | Solubility ([4]; Methyl ethyl ketone): S < 7.6 mg/mL | Solubility ([4]; Methyl isobutyl ketone): S < 7.7 mg/mL | Solubility ([4]; Tetrahydrofuran): S < 16.1 mg/mL | Solubility ([4]; n-Butanol): S < 8.7 mg/mL | Solubility ([4]; n-Propanol): S < 7.5 mg/mL | Tensile strength [6, 10]: Unable to be compressed into a tablet | Average amount sticking to the punch [7, 10]: 45 µg | Cumulative amount sticking to the punch [7, 10]: 90 µg
